We go through eight compounds from patent publication US12661410B2, “Compounds for targeted degradation of RET” (C4 Therapeutics, Inc., priority 2020, dated 2026).

The target in experiment [1] is T1, RET(KD: 658-1114 G810R) (Homo sapiens, UniProt P07949, G810R).
T1 construct: 658-1114; expressed in transfected cells; host or cells: 293T.165 (293T cells, generated in-house)
T1 sequence (P07949 658-1114 G810R): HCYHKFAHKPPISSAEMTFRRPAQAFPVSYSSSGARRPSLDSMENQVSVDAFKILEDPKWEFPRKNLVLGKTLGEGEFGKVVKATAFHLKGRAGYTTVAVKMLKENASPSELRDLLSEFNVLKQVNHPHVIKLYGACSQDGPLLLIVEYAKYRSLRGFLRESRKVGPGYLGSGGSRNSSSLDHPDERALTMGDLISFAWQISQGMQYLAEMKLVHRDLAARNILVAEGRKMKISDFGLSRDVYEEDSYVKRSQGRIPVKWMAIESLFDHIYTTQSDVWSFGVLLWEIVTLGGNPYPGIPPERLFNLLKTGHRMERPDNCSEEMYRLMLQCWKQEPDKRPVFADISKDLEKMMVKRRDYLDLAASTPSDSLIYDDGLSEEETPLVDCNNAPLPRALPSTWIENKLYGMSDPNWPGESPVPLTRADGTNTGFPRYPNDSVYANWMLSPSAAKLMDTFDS
The experiment in a line: HiBiT-Degradation, RET G810R degradation assay (Nano-Glo HiBiT Lytic), 293T.165 cells. Type of experiment: cell-based. Particulars: for Emax / DC50: 6.0 hours; for Emax: % remaining protein, read-out: 293T.165 RET(KD: 658-1114 G810R) 6.0 hours (Emax); for DC50: read-out: 293T.165 RET(KD: 658-1114 G810R) 6.0 hours (DC50). In short, it runs like this:
(§1)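 HEK293T lines expressing HiBiT-tagged RET kinase domain, wild-type (293T.144) or G810R (293T.165), treated 6 h in duplicate, 11-point half-log series from 10 μM top. Lytic HiBiT luminescence read; DC50 and Emax (% protein remaining) from dose-response curves.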
(In general: HiBiT is a short tag that completes a luciferase, so light tracks the accessible tagged protein.)

The target of experiment [2] is T2, RET (658-1114) (Homo sapiens, UniProt P07949).
T2 construct: 658-1114; expressed in transfected cells; host or cells: 293T.144 (293T cells, generated in-house)
T2 sequence (P07949 658-1114): T1 sequence (P07949 658-1114 G810R) with R153G
Nature of the experiment: HiBiT-Degradation, RET wild-type degradation assay (Nano-Glo HiBiT Lytic), 293T.144 cells. In kind it is cell-based. As to conditions: HiBiT-Degradation; for DC50 / Emax: 6.0 hours; for DC50: read-out: 293T.144 RET (658-1114) 6.0 hours (DC50); for Emax: read-out: 293T.144 RET (658-1114) 6.0 hours (Emax). A digest of the protocol:
as §1

[3] abbreviates: half-maximal degradation concentration.

Molecules are shown by their SMILES. Positions count from the first letter of the chain named. Read-outs that look alike come from different tables or passages of the source. Some results are limits rather than exact numbers.

Take `N#Cc1cnn2cc(-c3ccc(N4CCN(C(=O)CN5CCC(c6ccc(NC7CCC(=O)NC7=O)cc6)CC5)CC4)cc3)cc(-c3ccc(N4CCC(Nc5ccccc5)CC4)nc3)c12` (stereo not shown) [Compound 20, 6-(4-(4-(2-(4-(4-((2,6-Dioxopiperidin-3-yl)amino)phenyl)piperidin-1-yl)acetyl)piperazin-1-yl)phenyl)-4-(6-(4-(phenylamino)piperidin-1-yl)pyridin-3-yl)pyrazolo[1,5-a]pyridine-3-carbonitrile]: the Emax (in general, the greatest response seen or fitted, relative to the assay's reference) in experiment [1] is below 30%. Besides, the DC50 (commonly the concentration giving 50% degradation) in experiment [1] (setting [3]) is below 100 nM. Further, in experiment [1] (HiBiT-Degradation), the “293T.165 RET(KD: 658-1114 G810R) 6.0 hours (Emax)” value is given as “++++ (< 30% = ++++)”, the “293T.165 RET(KD: 658-1114 G810R) 6.0 hours (IP) [nM]” value was “+++ (<100 nM = +++)” and the DC50 was below 100 nM. Also, in experiment [2], the “293T.144 RET (658-1114) 6.0 hours (IP) [nM]” value (“293T.144 RET” below) is “++++ (< 50 nM = ++++)”, the DC50 is below 50 nM and the Emax was below 30%.
As to `N#Cc1cnn2cc(-c3ccc(N4CCN(C(=O)CN5CCC(c6ccc(NC7CCC(=O)NC7=O)cc6)CC5)CC4)cc3)cc(-c3ccc(N4CC5CC(C4)N5Cc4ccccc4)nc3)c12` (stereo not shown) [Compound 22, 4-(6-(6-Benzyl-3,6-diazabicyclo[3.1.1]heptan-3-yl)pyridin-3-yl)-6-(4-(4-(2-(4-(4-((2,6-dioxopiperidin-3-yl)amino)phenyl)piperidin-1-yl)acetyl)piperazin-1-yl)phenyl)pyrazolo[1,5-a]pyridine-3-carbonitrile], the Emax in experiment [1] was below 30%. Also, in experiment [1] (setting [3]), the DC50 was below 100 nM. In experiment [1] (HiBiT-Degradation), the “293T.165 RET(KD: 658-1114 G810R) 6.0 hours (Emax)” value is on record as “++++ (< 30% = ++++)”, the “293T.165 RET(KD: 658-1114 G810R) 6.0 hours (IP) [nM]” value is “++++ (< 50 nM = ++++)” and the DC50 is below 100 nM. Besides, in experiment [2], the “293T.144 RET” value is “++++ (< 50 nM = ++++)”, the DC50 is below 50 nM and the Emax was below 30%.
For `CC1(NC(=O)Cc2ccccc2)CCN(c2ccc(-c3cc(-c4ccc(N5CCN(C(=O)CN6CCC(c7ccc(NC8CCC(=O)NC8=O)cc7F)CC6)CC5)cc4)cn4ncc(C#N)c34)cn2)CC1` (stereo not shown) [Compound 23, N-(1-(5-(3-Cyano-6-(4-(4-(2-(4-(4-((2,6-dioxopiperidin-3-yl)amino)-2-fluorophenyl)piperidin-1-yl)acetyl)piperazin-1-yl)phenyl)pyrazolo[1,5-a]pyridin-4-yl)pyridin-2-yl)-4-methylpiperidin-4-yl)-2-phenylacetamide], the Emax in experiment [1] is below 30%. Besides, the DC50 in experiment [1] (setting [3]) is below 100 nM. In addition, in experiment [1] (HiBiT-Degradation), the “293T.165 RET(KD: 658-1114 G810R) 6.0 hours (Emax)” value is “++++ (< 30% = ++++)”, the “293T.165 RET(KD: 658-1114 G810R) 6.0 hours (IP) [nM]” value is listed as “+++ (<100 nM = +++)” and the DC50 was below 100 nM. For the same compound, in experiment [2], the “293T.144 RET” value is reported as “++++ (< 50 nM = ++++)”, the DC50 is below 50 nM and the Emax is below 30%.
Take `N#Cc1cnn2cc(-c3ccc(N4CCN(C(=O)CN5CCC(c6ccc(NC7CCC(=O)NC7=O)cc6)CC5)CC4)cc3)cc(-c3ccc(N4CCOCC4)nc3)c12` (stereo not shown) [Compound 24, 6-(4-(4-(2-(4-(4-((2,6-Dioxopiperidin-3-yl)amino)phenyl)piperidin-1-yl)acetyl)piperazin-1-yl)phenyl)-4-(6-morpholinopyridin-3-yl)pyrazolo[1,5-a]pyridine-3-carbonitrile]: the Emax in experiment [1] is below 50%. For the same compound, the DC50 in experiment [1] (setting [3]) was below 100 nM. Also, in experiment [1] (HiBiT-Degradation), the “293T.165 RET(KD: 658-1114 G810R) 6.0 hours (Emax)” value was “+++ (<50% = +++)”, the “293T.165 RET(KD: 658-1114 G810R) 6.0 hours (IP) [nM]” value is given as “++++ (< 50 nM = ++++)” and the DC50 is below 100 nM. In addition, in experiment [2], the “293T.144 RET” value is “++++ (< 50 nM = ++++)”, the DC50 is below 50 nM and the Emax is below 30%.
Regarding `CC(C)(C)NC(=O)C1(C)CCN(c2ccc(-c3cc(-c4ccc(N5CCN(C(=O)CN6CCC(c7ccc(NC8CCC(=O)NC8=O)cc7F)CC6)CC5)cc4)cn4ncc(C#N)c34)cn2)CC1` (stereo not shown) [Compound 25, N-(tert-butyl)-1-(5-(3-cyano-6-(4-(4-(2-(4-(4-((2,6-dioxopiperidin-3-yl)amino)-2-fluorophenyl)piperidin-1-yl)acetyl)piperazin-1-yl)phenyl)pyrazolo[1,5-a]pyridin-4-yl)pyridin-2-yl)-4-methylpiperidine-4-carboxamide], the Emax in experiment [1] was below 50%. Moreover, the DC50 in experiment [1] (setting [3]) was below 100 nM. In addition, in experiment [1] (HiBiT-Degradation), the “293T.165 RET(KD: 658-1114 G810R) 6.0 hours (Emax)” value is recorded as “+++ (<50% = +++)”, the “293T.165 RET(KD: 658-1114 G810R) 6.0 hours (IP) [nM]” value is “++++ (< 50 nM = ++++)” and the 50% degradation concentration (DC50) was below 100 nM. In experiment [2], the “293T.144 RET” value is “++++ (< 50 nM = ++++)”, the DC50 is below 50 nM and the Emax was below 30%.
As for `N#Cc1cnn2cc(-c3ccc(N4CCN(C(=O)CC5(O)CCN(c6ccc(NC7CCC(=O)NC7=O)cc6F)CC5)CC4)cc3)cc(-c3ccc(N4CCN(C(=O)Cc5ccc(F)cn5)CC4)nc3)c12` (stereo not shown) [Compound 26, 6-[4-[4-[2-[1-[4-[(2,6-Dioxo-3-piperidyl)amino]-2-fluoro-phenyl]-4-hydroxy-4-piperidyl]acetyl]piperazin-1-yl]phenyl]-4-[6-[4-[2-(5-fluoro-2-pyridyl)acetyl]piperazin-1-yl]-3-pyridyl]pyrazolo[1,5-a]pyridine-3-carbonitrile], in experiment [1], the Emax was below 50%. Besides, in experiment [1] (setting [3]), the 50% degradation concentration (DC50) is below 50 nM. In experiment [1] (HiBiT-Degradation), the “293T.165 RET(KD: 658-1114 G810R) 6.0 hours (Emax)” value is listed as “+++ (<50% = +++)”, the “293T.165 RET(KD: 658-1114 G810R) 6.0 hours (IP) [nM]” value is listed as “++++ (< 50 nM = ++++)” and the DC50 is below 50 nM. Moreover, in experiment [2], the “293T.144 RET” value was “++++ (< 50 nM = ++++)”, the 50% degradation concentration (DC50) was below 50 nM and the maximal response (Emax) was below 30%.
Take `CC(=O)N1CCN(c2ccc(-c3nc(-c4ccc(N5CCN(C(=O)CN6CCC(c7ccc(NC8CCC(=O)NC8=O)cc7)CC6)CC5)cc4)cn4ncc(C#N)c34)cn2)CC1` (stereo not shown) [Compound 27, 4-(6-(4-acetylpiperazin-1-yl)pyridin-3-yl)-6-(4-(4-(2-(4-(4-((2,6-dioxopiperidin-3-yl)amino)phenyl)piperidin-1-yl)acetyl)piperazin-1-yl)phenyl)pyrazolo[1,5-a]pyrazine-3-carbonitrile]: the Emax in experiment [1] was below 30%. In experiment [1] (setting [3]), the DC50 was below 50 nM. In experiment [1] (HiBiT-Degradation), the “293T.165 RET(KD: 658-1114 G810R) 6.0 hours (Emax)” value was “++++ (< 30% = ++++)”, the “293T.165 RET(KD: 658-1114 G810R) 6.0 hours (IP) [nM]” value is on record as “++++ (< 50 nM = ++++)” and the DC50 was below 50 nM. In addition, in experiment [2], the “293T.144 RET” value is given as “++++ (< 50 nM = ++++)”, the DC50 was below 50 nM and the maximal response (Emax) is below 30%.
In the case of `N#Cc1cnn2cc(-c3ccc(N4CCN(C(=O)CN5CCC(c6ccc(NC7CCC(=O)NC7=O)cc6F)CC5)CC4)cc3)cc(-c3ccc(N4CCN(Cc5ccccn5)CC4)nc3)c12` (stereo not shown) [Compound 28, 6-(4-(4-(2-(4-(4-((2,6-Dioxopiperidin-3-yl)amino)-2-fluorophenyl)piperidin-1-yl)acetyl)piperazin-1-yl)phenyl)-4-(6-(4-(pyridin-2-ylmethyl)piperazin-1-yl)pyridin-3-yl)pyrazolo[1,5-a]pyridine-3-carbonitrile], in experiment [1], the Emax is below 30%. Moreover, in experiment [1] (setting [3]), the half-maximal degradation concentration (DC50) was below 100 nM. Moreover, in experiment [1] (HiBiT-Degradation), the “293T.165 RET(KD: 658-1114 G810R) 6.0 hours (Emax)” value is recorded as “++++ (< 30% = ++++)”, the “293T.165 RET(KD: 658-1114 G810R) 6.0 hours (IP) [nM]” value is reported as “++++ (< 50 nM = ++++)” and the half-maximal degradation concentration (DC50) was below 100 nM. In experiment [2], the “293T.144 RET” value is “++++ (< 50 nM = ++++)”, the 50% degradation concentration (DC50) was below 50 nM and the Emax is below 30%.
